Paper PMC5995905, “Confirmation of high-throughput screening data and novel mechanistic insights into VDR-xenobiotic interactions by orthogonal assays” (Scientific Reports, 2018)
“And” between values parts separate entries of the source, which are not always exact repeats. Equal entries are not always repeated. “Also recorded” adds a separate entry of the source. Where two headings read alike, the source gives them in different places.

Legend:
[1] = target: human VDR ligand-binding domain; design: method as in PMID 21543282; settings: agonist mode, cited from earlier work; for AC50: Tox21 qHTS data set, * = range of values
VDR:RXRα = target: T1, VDR:RXRα (Homo sapiens, UniProt P11473); experiment: Mammalian 2-hybrid assay, recruitment of RXRα by VDR, Cos7 cells
T1 sequence (P11473 1-427): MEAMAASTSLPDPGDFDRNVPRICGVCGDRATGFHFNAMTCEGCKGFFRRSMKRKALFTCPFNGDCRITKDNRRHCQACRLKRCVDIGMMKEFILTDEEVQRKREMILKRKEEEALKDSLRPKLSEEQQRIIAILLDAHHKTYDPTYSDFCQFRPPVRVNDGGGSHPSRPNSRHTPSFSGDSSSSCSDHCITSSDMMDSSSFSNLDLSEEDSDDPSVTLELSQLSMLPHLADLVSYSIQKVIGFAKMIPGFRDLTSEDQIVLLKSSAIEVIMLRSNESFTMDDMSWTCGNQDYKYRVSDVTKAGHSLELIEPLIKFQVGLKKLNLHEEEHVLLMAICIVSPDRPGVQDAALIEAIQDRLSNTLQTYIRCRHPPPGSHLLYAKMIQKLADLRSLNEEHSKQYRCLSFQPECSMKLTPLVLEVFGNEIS

human VDR [2] = target: T2, human VDR (Homo sapiens, UniProt P11473); experiment: Transient transactivation assay (CYP24-Luc), agonist mode, HEK293T cells
T2 sequence (P11473 1-427): T1 sequence (P11473 1-427)

human VDR [3] = target: T2, human VDR
[4] = target: T3, VDR:RXR, VDR:SRC-1 and VDR:NCoR interactions (Homo sapiens, UniProt P11473); experiment: Mammalian 2-hybrid assay, summary in words of VDR coregulator interactions; format: cell-based
T3 sequence (P11473 1-427): T1 sequence (P11473 1-427)

human VDR [5] = target: T2, human VDR; experiment: Transient transactivation assay (CYP24-Luc), antagonist mode with 3 nM 1,25D3, HEK293T cells; format: cell-based; settings: for IC50: read-out: Derived IC 50 (Transient transactivation assay)
VDR:SRC-1 = VDR:SRC-1 (Homo sapiens, UniProt P11473); experiment: Mammalian 2-hybrid assay, recruitment of coactivator SRC-1 by VDR, Cos7 cells
[6] = target: human VDR ligand-binding domain; design: method as in PMID 21543282; settings: read-out: Tox21 IC 50, cited from earlier work
VDR:NCoR = target: T4, VDR:NCoR (Homo sapiens, UniProt P11473); experiment: Mammalian 2-hybrid assay, recruitment of corepressor NCoR by VDR, Cos7 cells
T4 sequence (P11473 1-427): T1 sequence (P11473 1-427)

[7] = agonists, orthogonal transient transactivation assay, HEK293T cells
[8] = AC50 (μM), experimental AC50 as listed in Fig 4a, agonists
[9] = Derived AC50 (Transient transactivation assay), agonist mode, HEK293T cells, CYP24A1-Luc
[10] = agonists, -RXR (empty pSG5), percentage of vitamin D3, conc. in Fig 5: ergocalciferol 60, lithocholic acid 50, calcipotriol 0.05, ethylphenol compound 40, 9 aminoacridine 50, tamoxifen citrate 20 μM

| Compound | AC50 [1] [µM] | % Induction (pMRXRα + EpSG5) (VDR:RXRα) | % Induction (pMRXRα + SRC- 1) (VDR:RXRα) | Activity (human VDR [2]) | Derived Efficacy (fold induction) (human VDR [3]) | pattern of VDR:coregulator interaction facilitated by the ligand [4] | Activity (human VDR [2]; [7]) | Activity (human VDR [5]) | Derived Efficacy (fold inhibition) (human VDR [5]) | % Induction, pMSRC-1NR + EpSG5 (VDR:SRC-1) | also measured |
| --- | --- | --- | --- | --- | --- | --- | --- | --- | --- | --- | --- |
| CN1CCC(Nc2ncc3ncnc(Nc4ccc(F)c(Cl)c4)c3n2)CC1.Cl.Cl [Falnidamol dihydrochloride] | 3.3 | 5.3 | 3.7 | consistently failed to exhibit any concentration response interactions; also recorded: Inactive | 9.9267 | induced recruitment of RXR both in the presence and absence of co-transfected SRC-1 |  |  |  |  | activity in the Tox21 qHTS data set [1]: active |
| CC(C)C[C@H](NC(=O)[C@H](CCc1ccccc1)NC(=O)CN1CCOCC1)C(=O)N[C@@H](Cc1ccccc1)C(=O)N[C@@H](CC(C)C)C(=O)[C@@]1(C)CO1 [Carfizomib, reference compound] |  |  |  |  |  |  | very weak agonist activity |  |  |  | Activity (human VDR [5]; antagonists, transient transactivation assay in the presence of 3 nM 1,25D3): Active; Activity (human VDR [5]; antagonists, transient transactivation assay in the presence of 3 nM 1,25D3, listed as carfizomib): moderate to marked synergistic activity; IC50 (human VDR [5]; inhibition of 3 nM 1,25D3-induced response, HEK293T cells, unit given in Fig 3 legend): 0.53 µM and 0.538 µM; Derived Efficacy (fold inhibition) (human VDR [5]; top asymptote of Hill or Gain-Loss model, maximum response): 80.6485 fold inhibition; % Induction (pMRXRα + EpSG5) (VDR:RXRα; antagonists with 1,25D3, -SRC-1, percentage of vitamin D3, conc. in Fig 6: phenylarsine oxide 0.37, dibutyltin dichloride 1, K dicyanoaurate 6, aristolochic acid, carfizomib 12, menadiol 3 μM): 1908.1%; % Induction (pMSRC-1NR + RXRα) (VDR:SRC-1; antagonists with 1,25D3, +RXR, percentage of vitamin D3, conc. in Fig 6: Cd chloride 12, dibutyltin dichloride 1, K dicyanoaurate 6, proscillaridin, aristolochic acid, carfizomib 12 μM): 296%; IC50 ([6]; antagonist mode, Tox21 qHTS data set): 0.748 µM |
| Cl.Nc1c2ccccc2nc2ccccc12 [9 Aminoacridine monohydrochloride] | 4.25 to 11.1 |  |  |  | 44.5165 |  | Active |  |  |  | AC50 (human VDR [2]; [8]): 10.9 µM; AC50 (human VDR [2]; [9]): 12.6 µM; Fold Change (pMNCoR + EpSG5) (VDR:NCoR; agonists, -RXR, fold induction compared to DMSO, 9 aminoacridine at 50 μM in Fig 5): 67.7 fold; % Induction, pMSRC-1NR + EpSG5 (VDR:SRC-1; [10]): 14.4% |
| Cc1cc(Cc2cc(C)cc(C(C)(C)C)c2O)c(O)c(C(C)(C)C)c1 [2,2′-methylenebis(6-tert-butyl-4-methylphenol)] | 32.1 |  |  |  | 29.470 |  | Active |  |  |  | AC50 (human VDR [2]; [8]): 4.62 µM; AC50 (human VDR [2]; [9]): 9.32 µM; % Induction, pMSRC-1NR + EpSG5 (VDR:SRC-1; [10]): 8.2% |
| Cadmium reference solution |  | 23.7 | 16 |  |  |  |  | Active | 76.1807 | 1.3 | IC50 (human VDR [5]): 0.198 µM; Fold Change (pMNCoR + EpSG5) (VDR:NCoR): 0.7; % Induction (pMSRC-1NR + RXRα) (VDR:SRC-1): 0.9 |
| [Cl][Cd][Cl] [Cadmium chloride] |  | 175 |  |  |  |  |  | Active | 44.5165 |  | IC50 (human VDR [5]): 0.38 µM; Fold Change (pMNCoR + EpSG5) (VDR:NCoR): 1.1; IC50 [6]: 0.171 µM; pattern of change of 1,25D3 induced VDR:coregulator interaction [4]: enhanced recruitment of VDR:RXR and VDR:SRC-1 in both the presence and absence of co-expressed coregulators |
| O=C(NC(=O)c1c(F)cccc1F)Nc1ccc(OC(F)(F)C(F)OC(F)(F)F)c(Cl)c1 (stereo not shown) [Novaluron] | 23.4 |  |  | Active | 16.3718 | Interaction between VDR:SRC-1 only in the absence of RXR |  |  |  | 0.9 | AC50 (human VDR [2]; read-out: Derived AC50 (Transient transactivation assay)): 37.4 µM |
| Cadmium acetate dihydrate |  |  | 165.6 |  |  |  |  | Active | 20.5478 | 51.7 | % Induction (pMSRC-1NR + RXRα) (VDR:SRC-1): 46.7; IC50 [6]: 0.271 µM; pattern of change of 1,25D3 induced VDR:coregulator interaction [4]: enhanced the interaction between VDR:RXR only in the presence of co transfected SRC-1 |
| Cc1cccc2c1cc1ccc3cccc4ccc2c1c34 [7 methyl benzo (a) pyrene] | 2.54 |  |  | Active | 19.1624 | Interaction between VDR:RXR only in the presence of co transfected SRC-1 |  |  |  |  | AC50 (human VDR [2]; Derived AC50 (Transient transactivation assay)): 10.6 µM |
